Data reported in the Kinase Knowledgebase extract (Sharma et al. 2016).
pKi: −log10 of the molar value.

Biological target: CDK2 (human) (UniProt P24941)
Experiment: Enzyme Assay

SMILES | pKi
O=c1[nH][nH]c2ccc(-c3cc(Nc4n[nH]c5c(F)cc(F)cc45)c4ccccc4n3)c(C(F)(F)F)c12 | > 6.00
O=c1[nH][nH]c2ccc(-c3nc4c(c(Nc5n[nH]c(-c6cccnc6)n5)n3)CCCC4)c(C(F)(F)F)c12 | > 6.00
CC(=O)NC1CCC(c2nc(-c3cc4c(=O)[nH][nH]c4cc3C(F)(F)F)nc(Nc3n[nH]c4ccccc34)c2C)CC1 (centres undefined) | > 6.00
Cc1cnc(Nc2cccc(Nc3ccc4c(=O)[nH][nH]c4c3)c2)s1 | > 6.00
O=c1[nH][nH]c2ccc(-c3nc(Nc4n[nH]c5ccccc45)c4ccccc4n3)c([N+](=O)[O-])c12 | > 6.00
Cc1cc(Nc2cc(COc3ccc4c(=O)[nH][nH]c4c3)nc3c2CCCC3)n[nH]1 | > 6.00
Cc1cnc(NC(CCOc2ccc3c(=O)[nH][nH]c3c2)c2ccccc2)s1 (centres undefined) | > 6.00
O=c1[nH][nH]c2cc(Nc3cccc(Nc4nccnn4)c3)ccc12 | > 6.00
Cn1cnc(NCCC(=O)Oc2ccc3c(=O)[nH][nH]c3c2)c1 | > 6.00
O=c1[nH][nH]c2cc(NC3CCC(Nc4ccccn4)C3)ccc12 (centres undefined) | > 6.00
O=c1[nH][nH]c2cc(Nc3nc(Nc4n[nH]c5cccc(F)c45)c4ccccc4n3)ccc12 | > 6.00
O=c1[nH][nH]c2cc(CCCONc3ccccn3)ccc12 | > 6.00
CSc1n[nH]c(Nc2nc(Nc3ccc4c(=O)[nH][nH]c4c3)ccc2[N+](=O)[O-])n1 | > 6.00
Cc1cc(Nc2cc(N3CCCCC3)nc(SCc3ccc4[nH][nH]c(=O)c4c3)n2)n[nH]1 | > 6.00
Cc1cnc(NCCCCc2ccc3c(=O)[nH][nH]c3c2)s1 | > 6.00
Cc1cc(Nc2cc(-c3ccco3)[nH]n2)nc(COc2ccc3[nH][nH]c(=O)c3c2)n1 | > 6.00
O=c1[nH][nH]c2cc(OC(CCNc3nccnn3)Cc3ccccc3)ccc12 (centres undefined) | > 6.00
O=c1[nH][nH]c2cc(OC3CCC(Nc4ccccn4)C3)ccc12 (centres undefined) | > 6.00
O=c1[nH][nH]c2ccc(-c3nc(Nc4n[nH]c5ccccc45)cc(Oc4ccccc4)n3)c(C(F)(F)F)c12 | > 6.00
O=c1[nH][nH]c2cc(Sc3cc(Nc4cc(C5CC5)[nH]n4)ccn3)ccc12 | > 6.00
Cc1cc(Nc2cc(-c3cc4c(=O)[nH][nH]c4cc3C(F)(F)F)nc(N3CCNCC3)c2)n[nH]1 | > 6.00
Cc1cc(Nc2cc(Oc3ccc4c(=O)[nH][nH]c4c3)nc3ccccc23)n[nH]1 | > 6.00
Cn1cnc(NC(CCSc2ccc3c(=O)[nH][nH]c3c2)c2ccccc2)c1 (centres undefined) | > 6.00
Cc1cc(Nc2cnnc(-c3ccc4[nH][nH]c(=O)c4c3)c2)n[nH]1 | > 6.00

SMILES | pKi
Cc1cc(Nc2nc(-c3ccc4[nH][nH]c(=O)c4c3)nc3ccsc23)n[nH]1 | > 6.00
O=c1[nH][nH]c2ccc(OCc3nc(Nc4cc(C5CC5)[nH]n4)c4ccccc4n3)cc12 | > 6.00
CCCCc1cc(Nc2nncc(-c3ccc4[nH][nH]c(=O)c4c3)n2)n[nH]1 | > 6.00
Cc1cnc(NC(CCCc2ccc3c(=O)[nH][nH]c3c2)c2ccccc2)s1 (centres undefined) | > 6.00
O=c1[nH][nH]c2ccc(-c3cnnc(Nc4cc(C5CCCC5)[nH]n4)n3)cc12 | > 6.00
Cc1cc(Nc2nc(Nc3ccc4c(=O)[nH][nH]c4c3)nc3ccccc23)n[nH]1 | > 6.00
O=c1[nH][nH]c2cc(C(F)(F)F)c(-c3cc(Nc4n[nH]c5ccccc45)cc(-c4ccccc4)n3)cc12 | > 6.00
O=c1[nH][nH]c2ccc(OCc3cc4ccccc4c(Nc4cc(C5CC5)[nH]n4)n3)cc12 | > 6.00
O=c1[nH][nH]c2cc(Sc3nc(Nc4cc[nH]n4)c4ccccc4n3)ccc12 | > 6.00
O=c1[nH][nH]c2cc(CSc3cc(Nc4n[nH]c5ccccc45)ccn3)ccc12 | > 6.00
Cn1cnc(NC2CCCC(Sc3ccc4c(=O)[nH][nH]c4c3)C2)c1 (centres undefined) | > 6.00
Cc1nc(-c2ccc3[nH][nH]c(=O)c3c2C(F)(F)F)nc(Nc2n[nH]c3ccccc23)c1C | > 6.00
O=c1[nH][nH]c2cc(Cc3nc(Nc4cc(C5CC5)[nH]n4)c4ccccc4n3)ccc12 | > 6.00
O=c1[nH][nH]c2cc(Sc3cccc(Nc4n[nH]c5ccccc45)n3)ccc12 | > 6.00
CCCCOC(=O)c1cc(Nc2cc(C)[nH]n2)nc(Sc2ccc3c(=O)[nH][nH]c3c2)n1 | > 6.00
Cc1cnc(NC(=O)CCCc2ccc3c(=O)[nH][nH]c3c2)s1 | > 6.00
Cc1cnc(NCCC(=O)Oc2ccc3c(=O)[nH][nH]c3c2)s1 | > 6.00
CC(C)(C)OC(=O)n1[nH]c(=O)c2cc(Nc3nc(Nc4cc(C5CC5)[nH]n4)c4ccccc4n3)ccc21 | > 6.00
O=c1[nH][nH]c2cc(SC3CCCC(Nc4cc(C5CC5)[nH]n4)C3)ccc12 (centres undefined) | > 6.00
COCCCc1cc(Nc2nc(-c3ccc4[nH][nH]c(=O)c4c3)nc3ccccc23)n[nH]1 | > 6.00
Cc1cc(-c2cc3c(=O)[nH][nH]c3cc2Cl)nc(Nc2n[nH]c3ccccc23)c1C | > 6.00
CC(C)(C)c1cc(Nc2cc(-c3cccc([N+](=O)[O-])c3)nc(Nc3ccc4c(=O)[nH][nH]c4c3)n2)n[nH]1 | > 6.00
Cn1cnc(NC(=O)CCNc2ccc3c(=O)[nH][nH]c3c2)c1 | > 6.00
O=c1[nH][nH]c2cc(OC3CCC(Nc4cc(C5CC5)[nH]n4)C3)ccc12 (centres undefined) | > 6.00

SMILES | pKi
O=c1[nH][nH]c2cc(CC3CCCC(Nc4cc(C5CC5)[nH]n4)C3)ccc12 (centres undefined) | > 6.00
O=c1[nH][nH]c2cc(Nc3nc(Nc4cc(C5CC5)[nH]n4)cc(-c4ccccc4)n3)ccc12 | > 6.00
CC1CCN(c2nc(Nc3n[nH]c4ccccc34)nc(-c3cc4c(=O)[nH][nH]c4cc3C(F)(F)F)n2)C1 (centres undefined) | > 6.00
CC(C)(c1ccc2c(=O)[nH][nH]c2c1)C1CCC(Nc2ccccn2)C1 (centres undefined) | > 6.00
O=c1[nH][nH]c2cc(CCC3CCCC3Nc3nccnn3)ccc12 (centres undefined) | > 6.00
O=c1[nH][nH]c2cc(SC3CCC(Nc4cc(C5CC5)[nH]n4)C3)ccc12 (centres undefined) | > 6.00
O=c1[nH][nH]c2cc(OC(CCNc3cc(C4CC4)[nH]n3)Cc3ccccc3)ccc12 (centres undefined) | > 6.00
CN1CCC(OCc2cc(Nc3cc(C4CC4)[nH]n3)nc(Sc3ccc4c(=O)[nH][nH]c4c3)n2)CC1 | > 6.00
O=c1[nH][nH]c2cc(SC3COCC(Nc4nccnn4)C3)ccc12 (centres undefined) | > 6.00
O=c1[nH][nH]c2cc(NCCC(Nc3ccccn3)c3ccccc3)ccc12 (centres undefined) | > 6.00
Cc1cc(Nc2nc(Nc3ccc4c(=O)[nH][nH]c4c3)nc3c2CCN(Cc2ccccc2)C3)n[nH]1 | > 6.00
O=c1[nH][nH]c2cc(C(F)(F)F)c(-c3nc(Nc4n[nH]c5c(F)cc(F)cc45)c4nccnc4n3)cc12 | > 6.00
O=c1[nH][nH]c2cc(Sc3cccc(Nc4cc(C5CC5)[nH]n4)n3)ccc12 | > 6.00
Cc1cc(Nc2cc(C(C)(C)C)nc(Sc3ccc4c(=O)[nH][nH]c4c3)n2)n[nH]1 | > 6.00
COCc1cc(Nc2nc(Nc3ccc4c(=O)[nH][nH]c4c3)nc3ccccc23)n[nH]1 | > 6.00
O=c1[nH][nH]c2cc(C(F)(F)F)c(-c3nc(Nc4n[nH]c5c(F)cc(F)cc45)c4cnsc4n3)cc12 | > 6.00
CCc1cc(Nc2nc(Nc3ccc4c(=O)[nH][nH]c4c3)nc3ccc(-c4ccccc4)cc23)n[nH]1 | > 6.00
Cc1cccc2c(Nc3cc(-c4ccco4)[nH]n3)nc(-c3ccc4[nH][nH]c(=O)c4c3OC(F)(F)F)nc12 | > 6.00
CCc1cc(Nc2cc(C)[nH]n2)nc(CSc2ccc3[nH][nH]c(=O)c3c2)n1 | > 6.00
Cc1cc(Nc2cc(-c3ccccc3)[nH]n2)nc(Nc2ccc3c(=O)[nH][nH]c3c2)n1 | > 6.00
O=C(CCSc1ccc2c(=O)[nH][nH]c2c1)Nc1nccnn1 | > 6.00
Cc1cnc(Oc2ccc3c(=O)[nH][nH]c3c2)nc1Nc1cc(C2CC2)[nH]n1 | > 6.00
CC(C)NC(=O)c1cc(Nc2nc(-c3ccc4[nH][nH]c(=O)c4c3)nc3ccccc23)n[nH]1 | > 6.00
CN1CCN(C(=O)c2cc(Nc3nc(-c4ccc5[nH][nH]c(=O)c5c4)nc4ccccc34)n[nH]2)CC1 | > 6.00

SMILES | pKi
Cc1cc(Nc2cc(CN(C)C)nc(Sc3ccc4c(=O)[nH][nH]c4c3)n2)n[nH]1 | > 6.00
O=c1[nH][nH]c2ccc(C3CCCC(Nc4ccccn4)C3)cc12 (centres undefined) | > 6.00
Cn1cnc(NC(=O)CC(=O)Nc2ccc3c(=O)[nH][nH]c3c2)c1 | > 6.00
CN(C)CCOCc1cc(Nc2n[nH]c3ccccc23)nc(Sc2ccc3c(=O)[nH][nH]c3c2)n1 | > 6.00
Cc1cc(Nc2ccnc(Nc3ccc4c(=O)[nH][nH]c4c3)c2)n[nH]1 | > 6.00
O=c1[nH][nH]c2cc(SCCCNc3cc(C4CC4)[nH]n3)ccc12 | > 6.00
O=c1[nH][nH]c2cc(SC3COCC(Nc4cc(C5CC5)[nH]n4)C3)ccc12 (centres undefined) | > 6.00
Cc1cccc2c(Nc3cc(-c4ccccc4)[nH]n3)nc(-c3ccc4[nH][nH]c(=O)c4c3OC(F)(F)F)nc12 | > 6.00
O=c1[nH][nH]c2cc(OCC3CCCC3Nc3cc(C4CC4)[nH]n3)ccc12 (centres undefined) | > 6.00
O=c1[nH][nH]c2cc([C@@H]3C[C@H]3c3nc(Nc4n[nH]c5ccccc45)c4ccccc4n3)ccc12 | > 6.00
Cn1cnc(NC(=O)CCCc2ccc3c(=O)[nH][nH]c3c2)c1 | > 6.00
O=c1[nH][nH]c2cc(OCCC(Nc3cc(C4CC4)[nH]n3)c3ccccc3)ccc12 (centres undefined) | > 6.00
O=C1CCc2c(nc(-c3ccc4[nH][nH]c(=O)c4c3)nc2Nc2n[nH]c3ccccc23)C1 | > 6.00
Cc1cnc(NCCCNc2ccc3c(=O)[nH][nH]c3c2)s1 | > 6.00
O=C(CCOc1ccc2c(=O)[nH][nH]c2c1)Nc1ccccn1 | > 6.00
O=c1[nH][nH]c2ccc(-c3nc(Nc4n[nH]c5c(F)cc(F)cc45)c4cc(N5CCOCC5)ccc4n3)c(C(F)(F)F)c12 | > 6.00
O=c1[nH][nH]c2cc(Nc3cc(Nc4n[nH]c5ccccc45)ccn3)ccc12 | > 6.00
CCc1cc(Nc2cnnc(-c3ccc4[nH][nH]c(=O)c4c3)n2)n[nH]1 | > 6.00
Cn1cnc(NCCCOc2ccc3c(=O)[nH][nH]c3c2)c1 | > 6.00
O=c1[nH][nH]c2cc(SC3COCC(Nc4ccccn4)C3)ccc12 (centres undefined) | > 6.00
COC(C)(C)c1cc(Nc2cc(C3CC3)[nH]n2)nc(Sc2ccc3c(=O)[nH][nH]c3c2)n1 | > 6.00
Cc1cc(Nc2cc(-c3cc4c(=O)[nH][nH]c4cc3Cl)nc3c2CCCC3)n[nH]1 | > 6.00
